Literature values in US12156855B2, “Infusion dosage form of norepinephrine” (Sun Pharmaceutical Industries Limited, priority 2019, dated 2024).

| SMILES | reported toxicity (heart, ZHANG Cui-ying et al) | reported pharmacological action (Hans Aaron Bates, J. Org. Chem. 1983) |
| --- | --- | --- |
| O=Cc1ccc(O)c(O)c1 [3,4 dihydroxybenzaldehyde, 3,4-dihydroxybenzaldehyde] | toxic to the heart |  |
| Oc1cc2c(cc1O)C(O)CNC2 (centres unmarked) [impurity of Formula I, 1,2,3,4-tetrahydroisoquinoline-4,6,7-triol] |  | acts as false neurotransmitter |
